Measured values taken from PubChem BioAssay AID180 (DTP/NCI, 2004).
Values joined by “and” are separate entries in the source; they are usually repeats but may differ in a detail not shown here. Equal values may be shown once.

System: BDF1 mice, Adenocarcinoma 755 s.c., tumor weight T/C
Test: NCI In Vivo Anticancer Drug Screen. Data for tumor model Adenocarcinoma 755 (subcutaneous) in B6D2F1 (BDF1) mice
Details: endpoint: mean tumor weight, higher = larger tumour
Method in brief: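 Compound activity was tested in mice carrying transplanted tumors. Survival or tumor size was measured, and each value is the treated-group measurement divided by that of the vehicle-treated control group (T/C).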

SMILES: c1ccc(CSc2ncnc3nc[nH]c23)cc1
- T/C (dose: 1.5 mg/kg/injection, schedule: Q01DX011 (ip), vehicle: alkali diluted with saline): 2 % of control
- T/C (dose: 1.5 mg/kg/injection, schedule: Q01DX011 (oral), vehicle: alkali diluted with saline): 22 % of control
- T/C (dose: 2.5 mg/kg/injection, schedule: Q01DX011 (ip), vehicle: saline): 35 % of control
- T/C (dose: 3.0 mg/kg/injection, schedule: Q01DX011 (ip), vehicle: alkali diluted with saline): 44 % of control
- T/C (dose: 3.0 mg/kg/injection, schedule: Q01DX011 (ip), vehicle: carboxymethylcellulose (CMC)): 59 % of control
- T/C (dose: 3.0 mg/kg/injection, schedule: Q01DX011 (oral), vehicle: alkali diluted with saline): 28 % of control
- T/C (dose: 3.1 mg/kg/injection, schedule: Q01DX011 (ip), vehicle: carboxymethylcellulose (CMC)): 43 % of control
- T/C (dose: 5.0 mg/kg/injection, schedule: Q01DX011 (ip), vehicle: saline): 12 % of control
- T/C (dose: 6.0 mg/kg/injection, schedule: Q01DX006 (iv), vehicle: saline): 17 % of control
- T/C (dose: 6.0 mg/kg/injection, schedule: Q01DX011 (im), vehicle: saline): 12 % of control
- T/C (dose: 6.0 mg/kg/injection, schedule: Q01DX011 (ip), vehicle: alkali diluted with saline): 16 % of control
- T/C (dose: 6.0 mg/kg/injection, schedule: Q01DX011 (ip), vehicle: carboxymethylcellulose (CMC)): 22 % of control and 32 % of control
- T/C (dose: 6.0 mg/kg/injection, schedule: Q01DX011 (ip), vehicle: saline): 2 % of control
- T/C (dose: 6.0 mg/kg/injection, schedule: Q01DX011 (oral), vehicle: alkali diluted with saline): 16 % of control
- T/C (dose: 6.0 mg/kg/injection, schedule: Q01DX011 (sc), vehicle: steriod suspending solution): 9 % of control
- T/C (dose: 6.2 mg/kg/injection, schedule: Q01DX011 (ip), vehicle: carboxymethylcellulose (CMC)): 15 % of control
- T/C (dose: 10.0 mg/kg/injection, schedule: Q01DX011 (ip), vehicle: saline): 5 % of control
- T/C (dose: 11.0 mg/kg/injection, schedule: Q07DX002 (ip), vehicle: alkali diluted with saline): 39 % of control
- T/C (dose: 12.0 mg/kg/injection, schedule: Q01DX006 (iv), vehicle: saline): 2 % of control
- T/C (dose: 12.0 mg/kg/injection, schedule: Q01DX011 (im), vehicle: saline): 3 % of control
- T/C (dose: 12.0 mg/kg/injection, schedule: Q01DX011 (ip), vehicle: carboxymethylcellulose (CMC)): 3 % of control
- T/C (dose: 12.0 mg/kg/injection, schedule: Q01DX011 (oral), vehicle: alkali diluted with saline): 54 % of control
- T/C (dose: 12.0 mg/kg/injection, schedule: Q01DX011 (sc), vehicle: steriod suspending solution): 5 % of control
- T/C (dose: 12.5 mg/kg/injection, schedule: Q01DX011 (ip), vehicle: carboxymethylcellulose (CMC)): 3 % of control
- T/C (dose: 13.0 mg/kg/injection, schedule: Q01DX011 (ip), vehicle: carboxymethylcellulose (CMC)): 17 % of control
- T/C (dose: 19.0 mg/kg/injection, schedule: Q03DX004 (ip), vehicle: carboxymethylcellulose (CMC)): 31 % of control
- T/C (dose: 22.0 mg/kg/injection, schedule: Q07DX002 (ip), vehicle: alkali diluted with saline): 50 % of control
- T/C (dose: 25.0 mg/kg/injection, schedule: Q01DX006 (iv), vehicle: carboxymethylcellulose (CMC)): 9 % of control
- T/C (dose: 25.0 mg/kg/injection, schedule: Q01DX006 (iv), vehicle: saline): 3 % of control
- T/C (dose: 25.0 mg/kg/injection, schedule: Q01DX011 (im), vehicle: saline): 1 % of control
- T/C (dose: 25.0 mg/kg/injection, schedule: Q01DX011 (ip), vehicle: saline): 2 % of control
- T/C (dose: 25.0 mg/kg/injection, schedule: Q01DX011 (oral), vehicle: carboxymethylcellulose (CMC)): 10 % of control
- T/C (dose: 25.0 mg/kg/injection, schedule: Q01DX011 (sc), vehicle: carboxymethylcellulose (CMC)): 14 % of control
- T/C (dose: 25.0 mg/kg/injection, schedule: Q01DX011 (sc), vehicle: steriod suspending solution): 3 % of control
- T/C (dose: 38.0 mg/kg/injection, schedule: Q03DX004 (ip), vehicle: carboxymethylcellulose (CMC)): 2 % of control
- T/C (dose: 44.0 mg/kg/injection, schedule: Q07DX002 (ip), vehicle: alkali diluted with saline): 43 % of control
- T/C (dose: 44.0 mg/kg/injection, schedule: Q07DX002 (ip), vehicle: carboxymethylcellulose (CMC)): 5 % of control
- T/C (dose: 50.0 mg/kg/injection, schedule: Q01DX006 (iv), vehicle: carboxymethylcellulose (CMC)): 17 % of control
- T/C (dose: 50.0 mg/kg/injection, schedule: Q01DX011 (im), vehicle: carboxymethylcellulose (CMC)): 8 % of control
- T/C (dose: 50.0 mg/kg/injection, schedule: Q01DX011 (ip), vehicle: carboxymethylcellulose (CMC)): 3 % of control and 8 % of control
- T/C (dose: 50.0 mg/kg/injection, schedule: Q01DX011 (oral), vehicle: carboxymethylcellulose (CMC)): 6 % of control
- T/C (dose: 50.0 mg/kg/injection, schedule: Q01DX011 (sc), vehicle: steriod suspending solution): 1 % of control
- T/C (dose: 75.0 mg/kg/injection, schedule: Q03DX004 (ip), vehicle: carboxymethylcellulose (CMC)): 2 % of control and 13 % of control
- T/C (dose: 88.0 mg/kg/injection, schedule: Q07DX002 (ip), vehicle: alkali diluted with saline): 16 % of control
- T/C (dose: 88.0 mg/kg/injection, schedule: Q07DX002 (ip), vehicle: carboxymethylcellulose (CMC)): 45 % of control
- T/C (dose: 100.0 mg/kg/injection, schedule: Q01DX011 (im), vehicle: carboxymethylcellulose (CMC)): 1 % of control and 2 % of control
- T/C (dose: 100.0 mg/kg/injection, schedule: Q01DX011 (ip), vehicle: carboxymethylcellulose (CMC)): 2 % of control
- T/C (dose: 100.0 mg/kg/injection, schedule: Q01DX011 (sc), vehicle: steriod suspending solution): 2 % of control
- T/C (dose: 175.0 mg/kg/injection, schedule: Q07DX002 (ip), vehicle: carboxymethylcellulose (CMC)): 3 % of control and 4 % of control
- T/C (dose: 200.0 mg/kg/injection, schedule: Q01DX011 (im), vehicle: carboxymethylcellulose (CMC)): 11 % of control and 17 % of control
- T/C (dose: 200.0 mg/kg/injection, schedule: Q01DX011 (oral), vehicle: carboxymethylcellulose (CMC)): 1 % of control and 6 % of control
- T/C (dose: 200.0 mg/kg/injection, schedule: Q01DX011 (sc), vehicle: carboxymethylcellulose (CMC)): 17 % of control
- T/C (dose: 300.0 mg/kg/injection, schedule: Q03DX004 (ip), vehicle: carboxymethylcellulose (CMC)): 6 % of control
- T/C (dose: 350.0 mg/kg/injection, schedule: Q07DX002 (ip), vehicle: carboxymethylcellulose (CMC)): 1 % of control and 6 % of control
- T/C (dose: 600.0 mg/kg/injection, schedule: Q03DX004 (ip), vehicle: alkali diluted with saline): 3 % of control
- T/C (dose: 700.0 mg/kg/injection, schedule: Q07DX002 (ip), vehicle: carboxymethylcellulose (CMC)): 1 % of control

SMILES: O=C1NC(=O)c2cc([N+](=O)[O-])cc3cccc1c23
- T/C (dose: 85.0 mg/kg/injection, schedule: Q01DX011 (ip), vehicle: methylcellulose (MC)): 104 % of control
- T/C (dose: 680.0 mg/kg/injection, schedule: Q01DX011 (ip), vehicle: methylcellulose (MC)): 89 % of control

SMILES: CC1CCOS(=O)O1 (stereo unspecified)
- T/C (dose: 20.0 mg/kg/injection, schedule: Q01DX011 (ip), vehicle: carboxymethylcellulose (CMC)): 76 % of control
- T/C (dose: 40.0 mg/kg/injection, schedule: Q01DX011 (ip), vehicle: carboxymethylcellulose (CMC)): 18 % of control

SMILES: COc1ccccc1NC(=O)CSC(N)=O
- T/C (dose: 50.0 mg/kg/injection, schedule: Q01DX011 (ip), vehicle: methylcellulose (MC)): 106 % of control
- T/C (dose: 400.0 mg/kg/injection, schedule: Q01DX011 (ip), vehicle: carboxymethylcellulose (CMC)): 5 % of control

SMILES: CC(=O)OCC(=O)[C@@]1(O)CC[C@H]2[C@@H]3C[C@H](C)C4=CC(=O)C=C[C@]4(C)[C@H]3[C@@H](O)C[C@@]21C
- T/C (dose: 2.5 mg/kg/injection, schedule: Q01DX011 (sc), vehicle: steriod suspending solution): 70 % of control
- T/C (dose: 3.8 mg/kg/injection, schedule: Q01DX011 (sc), vehicle: steriod suspending solution): 77 % of control
- T/C (dose: 5.0 mg/kg/injection, schedule: Q01DX011 (sc), vehicle: steriod suspending solution): 57 % of control
- T/C (dose: 7.5 mg/kg/injection, schedule: Q01DX011 (sc), vehicle: steriod suspending solution): 68 % of control
- T/C (dose: 10.0 mg/kg/injection, schedule: Q01DX011 (sc), vehicle: steriod suspending solution): 35 % of control
- T/C (dose: 15.0 mg/kg/injection, schedule: Q01DX011 (sc), vehicle: steriod suspending solution): 37 % of control
- T/C (dose: 20.0 mg/kg/injection, schedule: Q01DX011 (sc), vehicle: steriod suspending solution): 25 % of control and 40 % of control
- T/C (dose: 40.0 mg/kg/injection, schedule: Q01DX011 (sc), vehicle: steriod suspending solution): 14 % of control and 20 % of control
- T/C (dose: 80.0 mg/kg/injection, schedule: Q01DX011 (sc), vehicle: steriod suspending solution): 6 % of control

SMILES: NOCC(=O)O
- T/C (dose: 6.25 mg/kg/injection, schedule: Q01DX011 (ip), vehicle: water): 62 % of control
- T/C (dose: 12.5 mg/kg/injection, schedule: Q01DX011 (ip), vehicle: other): 54 % of control
- T/C (dose: 12.5 mg/kg/injection, schedule: Q01DX011 (ip), vehicle: water): 68 % of control and 70 % of control
- T/C (dose: 18.75 mg/kg/injection, schedule: Q01DX011 (ip), vehicle: other): 65 % of control
- T/C (dose: 25.0 mg/kg/injection, schedule: Q01DX011 (ip), vehicle: water): 29 % of control
